Experimental data as given in US20250213564A1, “COMPOSITIONS AND METHODS FOR THE TREATMENT OF ALZHEIMER'S DISEASE AND OTHER NEUROGENERATIVE DISEASE” (priority 2022, published 2025).
Counter-ions that a name gives are not always drawn.

What was measured:
[1] = tested on: Ctrl and APP/PS1 (AD) mice; assay: Marble burying (MB); format: in vivo; conditions: for percentage of marbles buried: 2-month-old female AD mice
Procedure: The MB assay was conducted in a clean cage (10.5 in×5.5 in) containing soft pliable Beta Chip bedding (Northeastern Products Corp, Warrensburg, NY). The cage contained 16 marbles set up in 4 rows of 4 across. Mice were given 20 minutes to explore and bury. At the end of the assay, the percentage of marbles buried was calculated.

[2] = tested on: Ctrl and APP/PS1 (AD) mice; assay: Contextual fear conditioning (CFC), 3-shock; format: in vivo; conditions: for memory retrieval: 2-month-old male AD mice; for learning (freezing during training): male AD mice
Procedure: A 3-shock CFC paradigm was administered as previously described (Denny et al., 2014; Drew et al., 2010). Fear conditioning was conducted in chambers obtained from Coulborn Instruments (Allentown, PA) with internal dimensions of approximately 20 cm wide×16 cm deep×20.5 cm high. The chambers had metal walls on each side, clear plastic front and back walls and ceilings, and stainless-steel bars on the floor. A house light (CM1820 bulb, 28 V, 100 mA) mounted directly above the chamber provided illumination. Each chamber was located inside a larger, insulated, plastic cabinet that provided protection from outside light and noise. Each cabinet contained a ventilation fan that was operated during the sessions. A paper towel dabbed with lemon solution was placed underneath the chamber floor. Mice were held outside the experimental room in their home cages prior to testing and transported to the conditioning apparatus individually in standard mouse cages. Chambers were cleaned with 70% EtOH between each set of mice. Training sessions were conducted using a 3-shock protocol. Mice were placed into the conditioning chamber and received shocks at 180 s, 240 s, and 300 s (2 s duration each, 0.75 mA). Fifteen seconds after the last shock, mice were removed from the chamber. Overall, the training session lasted 317 s. […] All sessions were scored for freezing using FreezeFrame4 (Actimetrics, Wilmette, IL).

[3] = tested on: 5xFAD mouse model of Alzheimer's disease (AD); conditions: Giannoni et al., 2013; cited from earlier work
[4] = tested on: Ctrl and APP/PS1 (AD) mice; conditions: male Ctrl mice; single injection; compared to Ctrl mice
Procedure: The APP/PS1 (AD) mice were previously bred with the ArcCreER^T2×enhanced yellow fluorescent protein (EYFP) mice (Denny et al., 2014; Perusini et al., 2017). Female and male mice were used in all experiments. The Ctrl mice were APP/PS1 (−)×ArcCreER^T2 (+) or (−)×EYFP (+/−), and the AD mice were APP/PS1 (+)×ArcCreER^T2 (+) or (−)×EYFP (+/−). Mice were housed 4-5 per cage in a 12-h (06:00-18:00) light-dark colony room at 22° C. Mice had ad libitum access to food and water.
All drugs were resuspended in saline and made fresh for each experiment. […] These dosages were chosen based upon previous studies (Brachman et al., 2016; Chen et al., 2020a). […] All drugs were prepared in physiological saline and administered intraperitoneally (i.p.) in volumes of 0.1 cc per 10 mg body weight.
Testing was performed as previously described (Brachman et al., 2016; Chen et al., 2020a). Briefly, the testing apparatus consisted of a plastic box (50×50×20 cm). The floor was covered with approximately 2 cm of wooden bedding and the arena was brightly lit (approximately 1000 lux). […] The latency of the mice to begin eating was recorded. Immediately after the latency was recorded, the food pellet was removed from the arena. The mice were then placed into their home cage and the amount of food consumed in 5 min was measured (home cage consumption), followed by an assessment of post-restriction weight. […]

[5] = mouse, in vivo
[6] = target: hERG (human Ether-a-go-go Related Gene) channels (Homo sapiens, UniProt Q12809); conditions: cited from earlier work
hERG (human Ether-a-go-go Related Gene) channels, sequence (Q12809 whole entry): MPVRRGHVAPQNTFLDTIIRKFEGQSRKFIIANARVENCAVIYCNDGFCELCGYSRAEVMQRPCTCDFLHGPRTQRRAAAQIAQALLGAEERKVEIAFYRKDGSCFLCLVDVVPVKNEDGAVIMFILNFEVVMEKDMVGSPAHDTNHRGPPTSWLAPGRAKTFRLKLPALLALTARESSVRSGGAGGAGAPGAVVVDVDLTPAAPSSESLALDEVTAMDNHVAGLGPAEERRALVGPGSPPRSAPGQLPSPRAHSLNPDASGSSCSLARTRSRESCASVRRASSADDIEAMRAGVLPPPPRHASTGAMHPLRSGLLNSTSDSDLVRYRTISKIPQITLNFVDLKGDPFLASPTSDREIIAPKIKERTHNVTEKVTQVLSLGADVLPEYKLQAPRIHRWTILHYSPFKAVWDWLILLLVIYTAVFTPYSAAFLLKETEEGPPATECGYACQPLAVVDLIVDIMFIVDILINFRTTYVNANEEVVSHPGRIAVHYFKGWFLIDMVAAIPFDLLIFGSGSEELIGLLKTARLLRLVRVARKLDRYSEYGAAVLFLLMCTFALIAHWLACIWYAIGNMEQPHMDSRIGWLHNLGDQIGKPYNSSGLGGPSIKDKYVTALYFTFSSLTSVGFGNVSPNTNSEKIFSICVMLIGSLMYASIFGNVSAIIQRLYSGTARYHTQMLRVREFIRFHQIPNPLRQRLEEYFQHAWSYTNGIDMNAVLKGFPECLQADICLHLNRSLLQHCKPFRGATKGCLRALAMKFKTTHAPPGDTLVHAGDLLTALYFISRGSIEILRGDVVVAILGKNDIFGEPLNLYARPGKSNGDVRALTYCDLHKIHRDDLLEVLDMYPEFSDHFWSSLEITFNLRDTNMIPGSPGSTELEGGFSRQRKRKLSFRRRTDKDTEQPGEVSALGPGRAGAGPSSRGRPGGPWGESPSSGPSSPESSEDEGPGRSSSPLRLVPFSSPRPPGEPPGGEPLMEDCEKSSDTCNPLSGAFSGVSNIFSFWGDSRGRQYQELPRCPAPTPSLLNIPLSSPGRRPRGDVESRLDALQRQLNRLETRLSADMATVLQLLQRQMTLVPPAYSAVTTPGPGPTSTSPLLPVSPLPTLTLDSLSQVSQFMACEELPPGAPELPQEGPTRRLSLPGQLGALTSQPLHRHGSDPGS

Row | Compound | perseverative behavior (number of marbles buried) ([1]; female Ctrl mice, prophylactic administration, FIG. 3) | memory retrieval ([2]; 1×(R,S)-ketamine 30 mg/kg) | learning (freezing during training) ([2]; single injection) | freezing during training ([2]; male Ctrl mice, single injection, compared to other groups) | behavioral deficits [3] | hippocampal astrogliosis and microgliosis [3] | number of amyloid plaques and level of amyloid beta (Aβ) species [3] | percentage of marbles buried ([1]; 7×prucalopride 1.5 mg/kg) | percentage of marbles buried ([1]; 7×prucalopride 3 mg/kg) | memory retrieval ([2]; 7×prucalopride 3 mg/kg) | latency to feed in home cage [4] | weight and weight loss [5] | affinity for the hERG channels [6]
1 | CNC1(c2ccccc2Cl)CCCCC1=O (racemic) [(R,S)-ketamine, (RS)-2-(2-chlorophenyl)-2-(methylamino)cyclohexanone] | decreased | improved | Neither (R,S)-ketamine nor prucalopride, whether administered solely or jointly, affected learning | increased |  |  |  |  |  |  |  |  | 
2 | CCCCN1CCC(CCC(=O)c2cc(Cl)c(N)cc2OC)CC1.Cl [RS-67,333, 1-(4-amino-5-chloro-2-methoxyphenyl)-3-[1(n-butyl)-4-piperidinyl]-1-propanone HCl] |  |  |  |  | effective in improving | decreasing | decreasing |  |  |  |  |  | 
3 | COCCCN1CCC(NC(=O)c2cc(Cl)c(N)c3c2OCC3)CC1 [prucalopride, 4-amino-5-chloro-2,3-dihydro-N-[1-3-methoxypropyl)-4-piperidinyl]-7-benzofuran carboxamide monohydrochloride] |  |  | Neither (R,S)-ketamine nor prucalopride, whether administered solely or jointly, affected learning |  |  |  |  | decreased | decreased | improved | more quickly | neither weight nor weight loss was impacted | no affinity
